Reference: the NIST ThermoML archive (doi:10.1021/je5002686)
Several values for one entry are separate records, joined by “and”; a condition that tells them apart may be missing. Equal entries are not always repeated.

Details: Liquid, Vibrating tube method

CCOC(F)(C(F)(F)C(F)(F)C(F)(F)F)C(F)(C(F)(F)F)C(F)(F)F (stereo not given) [2-trifluoromethyl-3-ethoxydodecafluorohexane]
Details	mass density
350 K, 40000 kPa	1622.9 kg/m3 and 1622.8 kg/m3
350 K, 40010 kPa	1622.7 kg/m3
350 K, 44990 kPa	1632.7 kg/m3 and 1632.5 kg/m3
350 K, 45000 kPa	1632.5 kg/m3
350 K, 49990 kPa	1641.9 kg/m3 and 1641.7 kg/m3
350 K, 50000 kPa	1641.8 kg/m3
370 K, 490 kPa	1465.7 kg/m3 and 1465.9 kg/m3
370 K, 500 kPa	1466 kg/m3
370 K, 1000 kPa	1468.6 kg/m3 and 1468.4 kg/m3 and 1468.5 kg/m3
370 K, 1990 kPa	1473.6 kg/m3 and 1473.5 kg/m3
370 K, 2000 kPa	1473.4 kg/m3
370 K, 2990 kPa	1478.5 kg/m3
370 K, 3000 kPa	1478.2 kg/m3 and 1478.5 kg/m3
370 K, 3990 kPa	1483.1 kg/m3
370 K, 4000 kPa	1483.1 kg/m3 and 1483 kg/m3
370 K, 4990 kPa	1487.6 kg/m3
370 K, 5000 kPa	1487.5 kg/m3 and 1487.6 kg/m3
370 K, 10000 kPa	1508.2 kg/m3 and 1507.9 kg/m3 and 1508.1 kg/m3
370 K, 14990 kPa	1526 kg/m3 and 1525.8 kg/m3
370 K, 19990 kPa	1541.7 kg/m3 and 1541.8 kg/m3
370 K, 20000 kPa	1541.9 kg/m3
370 K, 25000 kPa	1556.3 kg/m3 and 1556.1 kg/m3 and 1556.2 kg/m3
370 K, 30000 kPa	1569.5 kg/m3 and 1569.2 kg/m3 and 1569.4 kg/m3
370 K, 34990 kPa	1581.5 kg/m3
370 K, 35000 kPa	1581.7 kg/m3 and 1581.4 kg/m3
370 K, 40000 kPa	1593 kg/m3 and 1592.7 kg/m3 and 1592.8 kg/m3
370 K, 45000 kPa	1603.6 kg/m3 and 1603.3 kg/m3 and 1603.4 kg/m3
370 K, 49990 kPa	1613.2 kg/m3 and 1613.4 kg/m3
370 K, 50020 kPa	1613.6 kg/m3
390 K, 490 kPa	1417.9 kg/m3
390 K, 500 kPa	1417.8 kg/m3 and 1417.7 kg/m3
390 K, 990 kPa	1420.9 kg/m3 and 1421.1 kg/m3
390 K, 1000 kPa	1421.1 kg/m3
390 K, 1990 kPa	1427.2 kg/m3 and 1427.4 kg/m3
390 K, 2000 kPa	1427.1 kg/m3
390 K, 3000 kPa	1433.2 kg/m3 and 1433.1 kg/m3
390 K, 3010 kPa	1433.3 kg/m3
390 K, 3990 kPa	1438.8 kg/m3 and 1438.7 kg/m3 and 1438.9 kg/m3
390 K, 5000 kPa	1444.3 kg/m3 and 1444.1 kg/m3 and 1444.4 kg/m3
390 K, 10000 kPa	1468.4 kg/m3 and 1468.3 kg/m3 and 1468.5 kg/m3
390 K, 14990 kPa	1488.9 kg/m3 and 1489 kg/m3
390 K, 15000 kPa	1488.9 kg/m3
390 K, 19990 kPa	1506.8 kg/m3 and 1507 kg/m3
390 K, 20000 kPa	1507 kg/m3
390 K, 25000 kPa	1523 kg/m3 and 1522.9 kg/m3 and 1523.1 kg/m3
390 K, 29990 kPa	1537.6 kg/m3
390 K, 30000 kPa	1537.6 kg/m3 and 1537.4 kg/m3
390 K, 35000 kPa	1550.9 kg/m3 and 1550.8 kg/m3 and 1551 kg/m3
390 K, 40000 kPa	1563.2 kg/m3 and 1563.1 kg/m3 and 1563.3 kg/m3
390 K, 44990 kPa	1574.8 kg/m3
390 K, 45000 kPa	1574.7 kg/m3 and 1574.6 kg/m3
390 K, 49980 kPa	1585.3 kg/m3
390 K, 49990 kPa	1585.5 kg/m3
410 K, 990 kPa	1370.5 kg/m3
410 K, 3990 kPa	1392.5 kg/m3
410 K, 4000 kPa	1392.7 kg/m3
410 K, 4990 kPa	1399.3 kg/m3
410 K, 10000 kPa	1427.9 kg/m3
410 K, 15000 kPa	1451.6 kg/m3 and 1451.5 kg/m3
410 K, 19990 kPa	1471.8 kg/m3
410 K, 20000 kPa	1472 kg/m3
410 K, 24990 kPa	1489.9 kg/m3 and 1489.7 kg/m3
410 K, 29990 kPa	1506 kg/m3
410 K, 30000 kPa	1505.8 kg/m3
410 K, 34990 kPa	1520.6 kg/m3
410 K, 35000 kPa	1520.5 kg/m3
410 K, 40000 kPa	1534 kg/m3 and 1533.9 kg/m3
410 K, 45000 kPa	1546.4 kg/m3
410 K, 45010 kPa	1546.3 kg/m3
410 K, 50000 kPa	1558 kg/m3
410 K, 50020 kPa	1557.9 kg/m3
430 K, 500 kPa	1310.6 kg/m3 and 1310.4 kg/m3
430 K, 1000 kPa	1316.1 kg/m3 and 1315.9 kg/m3 and 1316.2 kg/m3
430 K, 2000 kPa	1326.2 kg/m3 and 1326 kg/m3 and 1326.3 kg/m3
430 K, 3000 kPa	1335.6 kg/m3 and 1335.4 kg/m3 and 1335.7 kg/m3
430 K, 4000 kPa	1344.3 kg/m3 and 1344.1 kg/m3
430 K, 4990 kPa	1352.1 kg/m3 and 1352.4 kg/m3
430 K, 5000 kPa	1352.4 kg/m3
430 K, 9990 kPa	1386.6 kg/m3 and 1386.4 kg/m3
430 K, 14990 kPa	1413.9 kg/m3
430 K, 15000 kPa	1413.8 kg/m3 and 1414 kg/m3
430 K, 19990 kPa	1436.8 kg/m3 and 1437 kg/m3
430 K, 20000 kPa	1436.9 kg/m3
430 K, 24990 kPa	1456.9 kg/m3
430 K, 25000 kPa	1456.9 kg/m3 and 1456.8 kg/m3
430 K, 29990 kPa	1474.6 kg/m3
430 K, 30000 kPa	1474.7 kg/m3
430 K, 30010 kPa	1474.5 kg/m3
430 K, 34990 kPa	1490.4 kg/m3
430 K, 35000 kPa	1490.6 kg/m3
430 K, 40000 kPa	1505.2 kg/m3 and 1505 kg/m3
430 K, 40010 kPa	1505.2 kg/m3
430 K, 45000 kPa	1518.6 kg/m3 and 1518.4 kg/m3
430 K, 49960 kPa	1530.9 kg/m3
430 K, 49990 kPa	1531 kg/m3
430 K, 50000 kPa	1530.9 kg/m3
450 K, 1990 kPa	1269.4 kg/m3
450 K, 3980 kPa	1292.6 kg/m3
450 K, 4000 kPa	1292.9 kg/m3
450 K, 4990 kPa	1302.9 kg/m3 and 1303 kg/m3
450 K, 10000 kPa	1344.2 kg/m3 and 1344.1 kg/m3 and 1344.3 kg/m3
450 K, 14980 kPa	1375.6 kg/m3
450 K, 14990 kPa	1375.9 kg/m3
450 K, 15000 kPa	1375.9 kg/m3
450 K, 19990 kPa	1401.9 kg/m3 and 1401.7 kg/m3
450 K, 25000 kPa	1424.1 kg/m3 and 1424 kg/m3
450 K, 29990 kPa	1443.6 kg/m3 and 1443.4 kg/m3
450 K, 30000 kPa	1443.6 kg/m3
450 K, 34990 kPa	1460.8 kg/m3 and 1461 kg/m3
450 K, 35000 kPa	1461 kg/m3
450 K, 39990 kPa	1476.8 kg/m3
450 K, 40000 kPa	1476.6 kg/m3 and 1476.8 kg/m3
450 K, 45000 kPa	1491.2 kg/m3 and 1491.1 kg/m3
450 K, 49980 kPa	1504.5 kg/m3
450 K, 49990 kPa	1504.5 kg/m3
450 K, 50000 kPa	1504.4 kg/m3
470 K, 5010 kPa	1250.5 kg/m3
470 K, 9990 kPa	1300.6 kg/m3 and 1300.8 kg/m3
470 K, 10010 kPa	1300.7 kg/m3
470 K, 14990 kPa	1337.3 kg/m3
470 K, 15000 kPa	1337.3 kg/m3 and 1337.5 kg/m3
470 K, 19990 kPa	1366.6 kg/m3
470 K, 20000 kPa	1366.7 kg/m3 and 1366.9 kg/m3
470 K, 25000 kPa	1391.4 kg/m3 and 1391.3 kg/m3 and 1391.5 kg/m3
470 K, 29990 kPa	1412.7 kg/m3
470 K, 30000 kPa	1412.8 kg/m3 and 1412.9 kg/m3
470 K, 34990 kPa	1431.7 kg/m3 and 1431.8 kg/m3
470 K, 35010 kPa	1431.7 kg/m3
470 K, 39990 kPa	1448.8 kg/m3
470 K, 40000 kPa	1448.7 kg/m3
470 K, 44990 kPa	1464.2 kg/m3 and 1464.1 kg/m3
470 K, 45000 kPa	1464.3 kg/m3
470 K, 49990 kPa	1478.4 kg/m3
470 K, 50000 kPa	1478.6 kg/m3
470 K, 50010 kPa	1478.5 kg/m3
